Broadly, the IC50 is the concentration at which inhibition is half-maximal.

Data set [1] can be described thus: Cytotoxicity against Mus musculus BALB/c (mouse) splenocytes assessed as decrease in [3H]-thymidine incorporation after 24 hr by beta-radiation counting analysis. Type of data set: cell-based, Splenocyte. As to conditions: read-out: MNCC. A general note: Dividing cells build labelled thymidine or BrdU into new DNA; call rule not given here.
The subject of data set [2] is Trypanosoma cruzi. Put plainly: Antitypanosomal activity against benznidazole-resistant trypomastigote stage of Trypanosoma cruzi Y assessed as parasite growth inhibition after 24 hr by hemacytometric analysis. In kind it is functional, organism-based.
Data set [3] has as its system Trypanosoma cruzi. Briefly: Antitypanosomal activity against benznidazole-resistant epimastigote stage of Trypanosoma cruzi Y assessed as parasite growth inhibition after 11 days by hemacytometric analysis. In kind it is functional, organism-based.
Data set [4] deals with Trypanosoma cruzi. Put plainly: Ratio of benznidazole IC50 to compound IC50 for benznidazole-resistant trypomastigote stage of Trypanosoma cruzi Y. In kind it is functional.
Data set [5] relates to Trypanosoma cruzi. Briefly: Ratio of nifurtimox IC50 to compound IC50 for benznidazole-resistant trypomastigote stage of Trypanosoma cruzi Y. In kind it is functional.
The nature of data set [6]: Cytotoxicity against Mus musculus BALB/c (mouse) splenocytes assessed as decrease in [3H]-thymidine incorporation at 1 to 100 ug/mL after 24 hr by beta-radiation counting analysis relative to untreated control. In kind it is cell-based. As to conditions: splenocyte.
[7] abbreviates: Trypanosoma cruzi, Y, 24 h, read-out: IC50.
Setting [8] is: Trypanosoma cruzi, Y, 264 h, read-out: IC50.

On to `CC1CS(=O)(=O)CCN1/N=C/c1ccc([N+](=O)[O-])o1` (stereo unspecified) [NIFURTIMOX], for which, in data set [1], the MNTC at 24 h was determined as 3.4 µM.

In the case of `O=C1c2ccccc2CSC12ON=C(c1ccc(Cl)cc1)C2c1ccc([N+](=O)[O-])cc1` (stereo unspecified), in data set [1], the MNTC at 24 h was 5 µg/mL. Besides, the IC50 in the data set on Trypanosoma cruzi [2] (setting [7]) was determined as 22 µM; in the data set with Trypanosoma cruzi [3] (setting [8]), 20.5 µM.

`Cc1ccc(C2C(c3ccc([N+](=O)[O-])cc3)=NOC23SCc2ccccc2C3=O)cc1` (stereo unspecified): the MNTC at 24 h in data set [1] was 50 µg/mL. The IC50 was 45.4 µM with Trypanosoma cruzi [2] (setting [7]) and 27.9 µM in the data set on Trypanosoma cruzi [3] (setting [8]).

`Cc1ccc(C2=NOC3(SCc4ccccc4C3=O)C2c2ccc(C)cc2)cc1` (stereo unspecified): the MNTC at 24 h in data set [1] worked out at 50 µg/mL. Further, the IC50 in the data set on Trypanosoma cruzi [2] (setting [7]) worked out at 3.78 µM; in the data set on Trypanosoma cruzi [3] (setting [8]), 19.1 µM. Moreover, the “Ratio IC50” value with Trypanosoma cruzi [4] and with Trypanosoma cruzi [5] was 3 throughout.

On to `COc1ccc(C2=NOC3(SCc4ccccc4C3=O)C2c2ccc(C)cc2)cc1` (stereo unspecified), for which, in data set [1], the MNTC at 24 h came out at 10 µg/mL. The IC50 with Trypanosoma cruzi [2] (setting [7]) amounted to 1.9 µM; in the data set with Trypanosoma cruzi [3] (setting [8]), 62.5 µM. Besides, the “Ratio IC50” value with Trypanosoma cruzi [4] and with Trypanosoma cruzi [5] was 3 in each case.

On to `Cc1ccc(C2=NOC3(CSc4ccccc4C3=O)C2c2ccc([N+](=O)[O-])cc2)cc1` (stereo unspecified), for which the Activity entry in data set [6] is given as “Non-toxic”. Besides, the IC50 entry in the data set on Trypanosoma cruzi [2] and in the data set with Trypanosoma cruzi [3] was “Not Active” each time.

For the molecule `COc1ccc(C2C(c3ccc(C)cc3)=NOC23CSc2ccccc2C3=O)cc1` (stereo unspecified), the Activity entry in data set [6] was “Non-toxic”. Besides, the IC50 entry with Trypanosoma cruzi [2] and in the data set on Trypanosoma cruzi [3] was “Not Active” each time.

Turning to `COc1ccc(C2=NOC3(SCc4ccccc4C3=O)C2c2ccc(OC)cc2)cc1` (stereo unspecified), the MNTC at 24 h in data set [1] came out at 50 µg/mL. Moreover, the IC50 with Trypanosoma cruzi [2] (setting [7]) was 1.5 µM; with Trypanosoma cruzi [3] (setting [8]) it was 1.95 µM.

`COc1ccc(C2C(c3ccc(C)cc3)=NOC23SCc2ccccc2C3=O)cc1` (stereo unspecified): in data set [1], the MNTC at 24 h came to 5 µg/mL. Further, the IC50 was 19 µM in the data set with Trypanosoma cruzi [2] (setting [7]) and 5.5 µM in the data set on Trypanosoma cruzi [3] (setting [8]).

On to `O=C(Cn1ccnc1[N+](=O)[O-])NCc1ccccc1` [BENZNIDAZOLE], for which the IC50 in the data set with Trypanosoma cruzi [3] (setting [8]) was 6.6 µM.

Turning to `COc1ccc(C2C(c3ccccc3)=NOC23CSc2ccccc2C3=O)cc1` (stereo unspecified), the Activity result in data set [6] is recorded as “Non-toxic”. Moreover, the IC50 result in the data set on Trypanosoma cruzi [2] and in the data set on Trypanosoma cruzi [3] was “Not Active” each time.

As to `Cc1ccc(C2=NOC3(CSc4ccccc4C3=O)C2c2ccccc2)cc1` (stereo unspecified), the Activity result in data set [6] is recorded as “Non-toxic”. Further, the IC50 result in the data set on Trypanosoma cruzi [2] and with Trypanosoma cruzi [3] was “Not Active” each time.

The values are drawn from ChEMBL document CHEMBL3046533, “Molecular drug design, synthesis and pharmacophore site identification of spiroheterocyclic compounds: Trypanosoma crusi inhibiting studies” (Med Chem Res, 2013).
